Source: PubChem BioAssay AID179 (DTP/NCI, 2004)
Calls of active or inactive are those of the source.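 The calls were made as follows: active = compounds giving half or more protection of infected cells from virus-caused growth loss, again on retest; inactive = the rest.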

Tested on: CEM cells HIV-1 protection, formazan growth assay
Assay: NCI AIDS Antiviral Assay
Conditions: for IC50: measured here: growth of uninfected CEM cells
Method in brief: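 Five concentrations of each compound were applied to infected and uninfected human CEM cells. Protection from HIV-1 was judged from growth measured with a soluble formazan assay.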

SMILES | EC50 [µM] | IC50 [µM] | outcome
CC(C)(C)[Si](C)(C)OCC1OC(n2ccc(=O)[nH]c2=O)C(C/C=[N+](/[O-])CC2OC(n3ccc(=O)[nH]c3=O)C(O[Si](C)(C)C(C)(C)C)C2O[Si](C)(C)C(C)(C)C)C1O[Si](C)(C)C(C)(C)C (stereo unspecified) | > 100 | 89.1 | –
C/C(CC(=O)Nc1ccccc1)=N\NC(N)=S | > 1000 | 170 | –
CCOc1cccc2cccnc12 | > 200 | > 200 | –
CC(C)Oc1cc2c(c3oc(=O)cc(CCl)c13)C(=O)[C@H](C)[C@@H](C)O2 | > 200 | 5.37 | –
O=C(/C=C/c1ccc(OCCCCCCCCCCOc2ccc(/C=C/C(=O)c3ccc(Cl)cc3)cc2)cc1)c1ccc(Cl)cc1 | > 4.17 | > 4.17 | –
CC(=O)OC[C@@H](COC(=O)/C=C/c1ccc(O)cc1)OC1OC(CO)C(O)C(O)C1O (stereo partly specified) | – | – | inactive
O=C1CCC2(c3ccccc3)Nc3ncccc3N12 (stereo unspecified) | > 200 | > 200 | –
c1ccc2c(c1)Sc1nccc3ccnc-2c13 | > 200 | 13.8 | –
CCc1nn(Cc2ccccc2)c2nc(C)c(CCc3ccccc3)c(Cl)c12 | > 200 | > 200 | –
CN(Nc1cc(=O)[nH]c(=O)[nH]1)c1ccccc1 | > 200 | > 200 | –
CC1(Cl)CCC2(CC1Br)C(C)(C)C(Br)=CC1OC12C (stereo unspecified) | > 200 | 33.9 | –
O=C(O)c1ccc2c3c(ncnc13)-c1ccccc1C2=O | > 200 | 14.8 | –
O=C(NC/C(Br)=C/Br)Nc1cccc2ccccc12 | 148 | > 200 | –
C1OC2OCC1O2 | > 2450 | > 2450 | –
O=C1NCC2(CCN(CC3COc4ccccc4O3)CC2)N1c1ccccc1 (stereo unspecified) | > 200 | > 200 | –
O=C1/C(=C/c2ccc(O)cc2)NC(=S)N1CN1CCCCC1 | > 200 | 32.4 | –
COC(=O)C1=C(C(=O)OC)NC2=C(C=N1)CCC2 | > 380 | > 380 | –
COC(=O)C1C(C(=O)OC)C2(OC(c3ccc(Cl)cc3)=CC2=O)C12OC(c1ccc(Cl)cc1)=CC2=O (stereo unspecified) | > 200 | 4.27 | –
CCCCNC(C)(C)C(SSSC(c1ccco1)C(C)(C)NCCCC)c1ccco1 (stereo unspecified) | > 200 | 30.9 | –
CCOC(=O)c1cnc2[nH]ccn2c1=O | > 200 | > 200 | –
CCN(CC)C1CCC(C2c3cc4c(cc3OC(N3CCOCC3)C2C)OCO4)CC1 (stereo unspecified) | > 100 | 5.89 | –
CCCCn1cnc2c(SSc3ncnc4c3ncn4CCCC)ncnc21 | > 200 | 10.7 | –
CC(=O)N1CC(=O)N2C(=O)/C(=C/c3ccc(Cl)cc3)N=C12 | > 63.1 | 6.92 | –

SMILES | EC50 [µM] | IC50 [µM] | outcome
CCCSc1nn2cc(NC(=O)OC)nc2s1 | > 200 | 2.29 | –
Cc1cccc(/C=C2\CCCc3ccccc3C2=O)c1 | > 200 | 11.2 | –
CCN(CC)CCOc1ccc(/C(C#N)=C/c2ccc(SC(C)C)cc2)cc1 | > 100 | 1.41 | –
COc1cc(NS(=O)(=O)c2ccc(N)cc2)nc(OC)n1 | > 200 | > 200 | –
COc1ccccc1C1C(C(=O)Nc2ccccc2)=C(C)NC(C)=C1C(=O)Nc1ccccc1 | > 21.9 | > 21.9 | –
C1CN(c2nnc(N3CCC3)nn2)C1 | – | – | inactive
CCOc1ccc(/C=C2/C(=O)N=C(N)N=C2N)cc1OCC | – | – | inactive
C#CC1(O)CCC2C3CCC4=Cc5oncc5CC4(C)C3CCC21C (stereo unspecified) | > 200 | 39.8 | –
CC1(C)C2CCC1C(=O)[C@@]1(C=CC(=O)CC1)C2 (stereo partly specified) | > 200 | > 200 | –
CCN(CC)c1ccc2c(c1)Nc1cc(=C(C#N)C#N)c3ccccc3c1=N2 | > 19.5 | > 19.5 | –
Cc1cn(COCCN2C(=O)c3ccccc3C2=O)c(=O)[nH]c1=O | > 200 | > 200 | –
C1CCC2(CC1)SSSC1(CCCCC1)SS2 | > 100 | > 100 | –
O/N=C1/C(=C/c2ccc(Cl)cc2)CCCC1C(NO)c1ccc(Cl)cc1 (stereo unspecified) | > 13.5 | > 13.5 | –
N=c1oc2ccc3ccccc3c2cc1-c1nc2ccccc2c(=O)[nH]1 | > 50.1 | 7.24 | –
CN1CCN(c2nc3cc(F)ccc3n3cccc23)CC1 | > 200 | 27.5 | –
CN(C)CC1C(O)C2CCN1CC2 (stereo unspecified) | – | – | inactive
CC1=C(C(=O)Nc2ccccc2C)C(c2ccccc2O)C(C(=O)Nc2ccccc2C)=C(C)N1 | 9.55 | 15.5 | –
O=C1/C(=C/c2cccc(Cl)c2)CCc2ccccc21 | > 10 | > 10 | –
O=Cc1cc(C(=O)Nc2ccc(/C=C/c3ccc(NC(=O)c4cc(C=O)c5cccnc5c4O)cc3S(=O)(=O)O)c(S(=O)(=O)O)c2)c(O)c2ncccc12 | 24.5 | > 100 | –
Cc1c(-c2ccc(N)cc2)c(=O)oc2cc(O)ccc12 | > 200 | > 200 | –
Cc1cn([C@H]2C[C@@H]3[C@@H](COC(C)(C[Se]c4ccccc4)N3O)O2)c(=O)[nH]c1=O (stereo partly specified) | 50.1 | 162 | –
O=C(O)c1cc(=O)c2c(OCC(O)COc3cccc4oc(C(=O)O)cc(=O)c34)cccc2o1 | > 200 | > 200 | –
c1ccc2oc(-c3ccc(-c4nc5ccccc5o4)c4c3CC4)nc2c1 | > 50.1 | > 50.1 | –

SMILES | EC50 [µM] | IC50 [µM] | outcome
O=C(O)CCSC(=O)Nc1cccc([N+](=O)[O-])c1 | – | – | inactive
COc1cc(OC)c(NC2=NCCO2)cc1Cl | > 200 | 13.5 | –
O=P(O)(O)CCCNO | > 200 | > 200 | –
CC(C)/C=C/c1cc(/C=C/C(=O)c2cc(/C=C/C(C)C)c(O)cc2O)ccc1O | – | – | inactive
Cc1cc(OCC(O)CO)ccc1-c1ccccc1 (stereo unspecified) | > 977 | 295 | –
N#CC1C(=O)N(c2ccccc2)NC12OC(=O)c1ccncc12 (stereo unspecified) | > 200 | > 200 | –
COc1ccc(NC(=O)/C(CC2=Nc3ccc([N+](=O)[O-])cc3NC2O)=N\NC(=O)C[N+](C)(C)C)c(OC)c1 (stereo unspecified) | > 45.7 | > 45.7 | –
CCc1cc2c(c3[nH]ccc13)[C@@H](C)C[C@H]2C | – | – | inactive
CC(C)(C)COC(=O)NC1CCC2CCCCC2C1 (stereo unspecified) | > 200 | > 200 | –
O=C(O)CCCNS(=O)(=O)c1ccc2ccccc2c1 | – | – | inactive
C/C(=N/OC(=O)N(C)C)c1ccc(Cl)cc1Cl | > 200 | 105 | –
CCOC(=O)/C=C/c1ccccc1Br | > 38.9 | > 38.9 | –
Cc1ccc(C(=O)/C=C/c2ccc(Cl)c(Cl)c2)cc1 | > 17.8 | > 17.8 | –
S=C1Cc2cc3ccccc3nc2-c2ccccc2N1 | > 100 | > 100 | –
O=[As]1(c2ccccc2)c2ccccc2Oc2ccccc21 | > 288 | 141 | –
Cc1c(Cl)cccc1NC(=O)CN(CC(C)C)CC(C)C | > 200 | 33.1 | –
Cc1ccc(S(=O)(=O)C(C#N)c2nc3ccccc3nc2-n2cccn2)cc1 (stereo unspecified) | > 200 | 126 | –
Nc1ccc2c(c1)nc1n2C(c2c(F)cccc2F)SC1 (stereo unspecified) | > 200 | 135 | –
NCCN(CCN(C(=O)Nc1ccccc1)c1ccccc1)C(=O)Nc1ccccc1 | > 200 | 35.5 | –
O=C(/C=C/c1cccs1)c1cccc(C(=O)/C=C/c2cccs2)n1 | > 200 | 110 | –
O=Nc1c(O)cc(O)c2ccccc12 | – | – | inactive
O=C(OCc1ccccc1)N1N=NC2C3CC(OCc4ccccc4)(OCc4ccccc4)C(O3)C21 (stereo unspecified) | > 10.7 | > 10.7 | –
CC(=O)OCC1OC(N2C(S)=C(C#N)C(c3ccco3)C(C(C)=O)=C2c2ccccc2)C(OC(C)=O)C(OC(C)=O)C1OC(C)=O (stereo unspecified) | 95.5 | > 200 | –

SMILES | EC50 [µM] | IC50 [µM] | outcome
O=Cc1ccc(-c2cccs2)s1 | – | – | inactive
Cc1cn(C2CCN(CC3COC(C)(C)O3)O2)c(=O)[nH]c1=O (stereo unspecified) | > 200 | > 200 | –
NNC(=S)N/N=C(/C(=O)Nc1ccc(Cl)c(Cl)c1)C(C1OC(=O)c2ccccc21)[N+](=O)[O-] (stereo unspecified) | > 501 | 257 | –
N#Cc1ncn(CCO)c1N | > 200 | > 200 | –
CCCN=C1NC(C)=CSC(Nc2ccccc2)=C1C#N | > 200 | > 200 | –
COC(=O)C1=C(OC(C)=O)c2ccccc2CS1 | > 135 | 123 | –
N#Cc1nc(C2=C(Cl)c3ccccc3OC2)[nH]c1C#N | – | – | inactive
CCCC1(NC(=O)C(F)(F)F)CC(OC)OC2COC(c3ccccc3)OC21 (stereo unspecified) | > 200 | > 200 | –
C#CCCCCC#Cc1ccccc1C(=O)OC | > 151 | 28.8 | –
Nc1c(O)cc(N=C2C(=O)C=CC=C2C(=O)O)c(O)c1C(=O)O | – | – | inactive
Cn1c(-c2ccccc2)cc(-c2ccc3c(c2)OCO3)c1-c1cccs1 | > 200 | > 200 | –
O=S(=O)([O-])[O-].[Fe+2].c1ccc(/C(=N\Nc2ccccn2)c2ccccn2)cc1 | – | – | inactive
O=C(NCCCCCCNC(=O)NC1OCC(O)C(O)C1O)NC1OCC(O)C(O)C1O (stereo unspecified) | – | – | inactive
c1ccc2c(c1)c1ccccc1n2-n1c2ccccc2c2ccccc21 | > 200 | 132 | –
CCOC(=O)c1sc2[n+](c1C)C(=O)/C(=C/c1cc(OC)c(OC)c(OC)c1)S2 | > 200 | 12.9 | –
CSc1c(C(=O)Nc2ccccc2)c(N)nn1-c1ccccc1 | > 200 | 70.8 | –
Cn1nc(-c2ccccc2)c2c(/C=C/c3ccc(F)cc3)onc2c1=O | > 38.9 | > 38.9 | –
CN(C)CCNc1ccc2c(=O)n(CCN(C)C)c(=O)n3c4ccccc4c(=O)c1c23 | > 0.1 | 0.00933 | –
CS1(=O)=NC(=N)c2ccccc21 (stereo unspecified) | – | – | inactive
COC(=O)c1ccc(Nc2nc3nc[nH]c3c(=O)[nH]2)cc1 | > 200 | 42.7 | –
Nc1ccc(N=Nc2ccc(-c3ccc(N=Nc4c(S(=O)(=O)O)cc5cc(S(=O)(=O)O)c(N=Nc6cccc([N+](=O)[O-])c6)c(N)c5c4O)cc3)cc2)c2cc(S(=O)(=O)O)ccc12 | – | – | active
COc1ccc(/C(Cl)=C(\CNc2ccccn2)c2ccccc2)cc1OC | > 200 | > 200 | –
